Experimental data: the NIST ThermoML archive (doi:10.1016/j.jct.2017.08.004)
± gives the expanded uncertainty stated by the source.

Assay: Molar enthalpy of transition or fusion
Conditions: Crystal; DSC

`OC[C@@H](O)[C@H](O)[C@@H](O)CO` [xylitol] and `OC[C@H](O)C(O)[C@@H](O)CO` [L-(-)-arabitol] are within error of each other in “Molar enthalpy of transition or fusion” value: 9.44 ± 0.598 kcal/mol for the first, 8.79 ± 1.77 kcal/mol for the second.

Compared with `OC[C@@H](O)[C@@H](O)[C@H](O)[C@H](O)CO` [D-mannitol], `OC[C@@H](O)C(O)[C@H](O)CO` [D-arabitol] is lower in “Molar enthalpy of transition or fusion” value: 13.3 ± 2.13 kcal/mol for the first, 9.46 ± 0.789 kcal/mol for the second.

`OC[C@@H](O)[C@@H](O)CO` [meso-1,2,3,4-butanetetrol] and `O[C@H]1[C@H](O)[C@@H](O)[C@H](O)[C@@H](O)[C@H]1O` [cis-1,2,3,5-trans-4,6-cyclohexanehexol] are within error of each other in “Molar enthalpy of transition or fusion” value: 10.7 ± 1.29 kcal/mol for the first, 12 ± 1.7 kcal/mol for the second.
